The values below come from patent US6656500B2, “Capsule system” (Allergan, Inc., priority 1999, dated 2003).

Data set [1] can be described thus: Amount of Tazarotene solubilized in caprylic/capric triglyceride per capsule. Format: physicochemical. Particulars: caprylic/capric triglyceride vehicle. An excerpt:
Importantly, the retinoid agent, Tazarotene, is fully dissolved in the vehicle in a conventional manner before incorporation into the capsule shell. The total dissolution of Tazarotene in the vehicle facilitates absorption from the gastro-intestinal tract by eliminating the need for drug dissolution prior to absorption.

Data set [2] can be described thus: Solubility of Tazarotene in water. Type of data set: physicochemical. An excerpt:
The invention is directed to capsule systems for the delivery of active agents, particularly retinoids. In a preferred example, it is known that the compound Tazarotene, known chemically as ethyl 6-[(4,4-dimethylthiochroman-6-yl)ethynyl]-nicotinate, having the molecular formula C21H21NO2S, is active in the treatment of acne and psoriasis. […] However, the solubility of Tazarotene in water is negligible.

For data set [3] the following is noted: women of child-bearing age who just get off treatment; cited from earlier work.

On to `CCOC(=O)c1ccc(C#Cc2ccc3c(c2)C(C)(C)CCS3)nc1` [Tazarotene, ethyl 6-[(4,4-dimethylthiochroman-6-yl)ethynyl]-nicotinate], for which the “amount effectively solubilized in a capsule” value in data set [1] is “up to 34 mg”. In addition, in data set [2], the solubility in water result is “negligible”.
For `COc1cc(C)c(/C=C/C(C)=C/C=C/C(C)=C/C(=O)O)c(C)c1C` [acitretin], in data set [3], the “typical precautionary pregnancy wash-out period” value is recorded as “three years”.
For `CC1=C(/C=C/C(C)=C/C=C/C(C)=C\C(=O)O)C(C)(C)CCC1` [isotretinoin], the “typical precautionary pregnancy wash-out period” value in data set [3] is given as “one month”.
